Measurements from patent US6544967B2, “Method for inhibiting bone resorption” (Merck & Co., Inc., priority 1997, dated 2003).

Test system: canine esophagus tissue
Test: Esophageal irritation potential, dog model (esophageal infusion in simulated gastric juice, histopathology)
Assay type: in vivo
Settings: for Histopathology of esophagus (photomicrographs): 50 mL; for Esophageal irritation potential: low dosages on consecutive days (Group 7 risedronate, Group 8 tiludronate)
Protocol: The esophageal irritation potential of the bisphosphonates is evaluated using a dog model.
The following solutions are prepared:
(1) simulated gastric juice (pH about 2), i.e. the control solution.
(5) simulated gastric juice (pH about 2) containing about 0.20 mg/mL of risedronate sodium on a risedronic acid active basis.
(6) simulated gastric juice (pH about 2) containing about 4.0 mg/mL of tiludronate disodium on a tiludronic acid active basis.
The simulated gastric juice is prepared by dissolving about 960 mg of pepsin (L-585,228000B003, Fisher Chemical) in about 147 mL of 0.90 (wt %) NaCl (aqueous), adding about 3 mL of 1.0 M HCl (aqueous), and adjusting the volume to about 300 mL with deionized water. The pH of the resulting solution is measured and if necessary is adjusted to about 2 using 1.0 M HCl (aqueous) or 1.0 M NaOH (aqueous).
The animals used in the experiments are anesthetized and administered about 50 mL of the appropriate solution over about 30 minutes by infusion into the esophagus using an infusion pump and a rubber catheter. The following treatment experiments are run:
Group 1: This control group contains four animals. Each animal is administered a dosage of about 50 mL of simulated gastric juice [solution (1)] on each of five consecutive days. The animals are sacrificed immediately after the last dose is administered.
Group 2: This group contains four animals. […] The animals are sacrificed immediately after the last dose is administered.
Group 3: This group contains five animals. […] The animals are sacrificed about 24 hours after the dose is administered.
Group 4: This group contains five animals. […] The animals are sacrificed about 7 days after the dose is administered.
Group 5: This group contains six animals. […] The animals are administered a total of four dosages. The animals are sacrificed about 7 days after the last dose is administered.
Group 6: This group contains six animals. […] The animals are administered a total of eight dosages. The animals are sacrificed about four days after the last dose is administered.
Group 7: This group contains eight animals. Each animal is administered a dosage of about 50 mL of simulated gastric juice containing about 0.20 mg/mL of risedronate [solution (5)] on each of five consecutive days. The animals are sacrificed immediately after the last dose is administered.
Group 8: This group contains four animals. Each animal is administered a dosage of about 50 mL of simulated gastric juice containing about 4.0 mg/mL of tiludronate on each of five consecutive days. The animals are sacrificed immediately after the last dose is administered.
The esophagus from each sacrificed animal is removed and prepared for histopathology using standard techniques by embedding the tissue in paraffin, staining with hematoxylin and eosin. The sections are examined microscopically.

With `NCCCC(O)(P(=O)(O)O)P(=O)(O)O` [Alendronate, 4-amino-1-hydroxybutylidene-1,1-bisphosphonic acid monosodium trihydrate] the Histo-pathology (Group 2 (n = 4): 0.20 mg/mL, 50 mL in simulated gastric juice pH about 2, 1X daily for 5 days, sacrifice immediately after last dosing, monosodium trihydrate) was “deep ulceration of the epithelial surface and marked submucosal inflammation and vacuolation”, the Histo-pathology (Group 3 (n = 5): 0.80 mg/mL, 50 mL in simulated gastric juice, 1X, sacrifice 24 hours after dosing, monosodium trihydrate) was “intact epithelial surface with very slight submucosal inflammation and vacuolation” and the Histo-pathology (Group 4 (n = 5): 0.80 mg/mL, 50 mL in simulated gastric juice, 1X, sacrifice 7 days after dosing, monosodium trihydrate) was “intact epithelium with either minimal inflammation (two of the five animals) or no inflammation (three of the five animals) and no vacuolation”. For the same molecule, the Histo-pathology (Group 5 (n = 6): 0.80 mg/mL, 50 mL in simulated gastric juice, 1X weekly for a total of 4 doses, sacrifice 7 days after last dosing, monosodium trihydrate) was “normal with an intact epithelium and absence of inflammatory cells in the submucosa” and the “Histopathology of esophagus (photomicrographs)” value (Group 6: 0.40 mg/mL, twice per week for four weeks (eight dosages), sacrifice about four days after last dose) was “deep ulceration of the epithelial surface and marked submucosal inflammation and vacuolation”.

`O=P(O)(O)C(O)(Cc1cccnc1)P(=O)(O)O` [Risedronate, 1-hydroxy-2-(3-pyridinyl)-ethylidene-1,1-bisphosphonic acid] was tested, and the Histo-pathology (Group 7 (n = 8): 0.20 mg/mL, 50 mL in simulated gastric juice, 1X daily for 5 days, sacrifice immediately after last dosing) was “deep ulceration of the epithelial surface and marked submucosal inflammation and vacuolation” and the Esophageal irritation potential was “high”.

`O=P(O)(O)C(Sc1ccc(Cl)cc1)P(=O)(O)O` [Tiludronate, (4-chlorophenyl)thiomethane-1,1-disphosphonic acid] was tested, and the “Histopathology of esophagus (photomicrographs)” value (Group 8: 4.0 mg/mL, five consecutive days, sacrifice immediately after last dose) was “slight ulceration of the epithelial surface and slight submucosal inflammation and vacuolation” and the Esophageal irritation potential was “high”.
